How the values were obtained:
AMPK = assay: pACC HTRF (Cisbio) assay, phosphorylation of ACC in U-2 OS Flp-In T-REx cells; assay type: cell-based; settings: for phosphorylation of the AMPK substrate ACC (ratio 665/620 nm): varying concentrations, 30 mins at 37 C
Method: U-2 OS cells were treated with varying concentrations of compound 1 for 30 mins at 37 C. Phosphorylation of ACC was assessed using the HTRF Cisbio (pACC kit).
U-2 OS cells were treated with varying concentrations of compound 1 for 30 mins at 37 C in the presence or absence of 11 μM of compound 2. Phosphorylation of ACC was assessed using the HTRF Cisbio (pACC kit).
First, we monitored the activation of AMPK within cells using the indirect activator, compound 1. U-2 OS Flp-In T-REx cells were seeded at 50 K in a 96-well plate and left overnight at 37 C in DMEM GlutaMAX (Thermo Fisher Scientific) supplemented with 10% (vol/vol) FBS and 100 U/ml penicillin G, and 100 μg/ml streptomycin. Cells were treated for 30 mins with varying concentrations of Compound 1 in media lacking FBS and then cells were lysed in 50 μl of Cisbio lysis buffer #1 supplemented with blocking solution as per the manufacturer's protocol (Cisbio). Cells were lysed for 30 mins at room temperature before 16 μl of lysate was incubated with 4 μl of the HTRF antibodies (1:40 dilution of the acceptor and donor (p)ACC antibodies, as per the manufacturers protocol). Lysates were incubated overnight with the antibodies before the 665 nm/620 nm ratio was determined using a MolecularDevices i3 plate reader (with a HTRF cartridge add-on).
To investigate whether treatment of compound 1 with our new identified direct benzocoumarin AMPK activator, compound 2, could improve the activation of AMPK, cells were treated for 30 mins with varying concentrations of compound 1 in the presence or absence of 11 μM compound 2. Cells were cultured and analysed according to example 1.

AMPK β1 WT = assay: pACC HTRF assay in AMPKβ1/β2 double knockout U-2 OS cells stably expressing β1 WT; assay type: cell-based, human
Method: (§1) The β1 WT or β1 S108A mutant were stably expressed in AMPKβ1β2 double knockout cells and were treated with varying concentrations of compound 1 for 30 mins at 37 C in the presence or absence of 11 μM of compound 2. Phosphorylation of ACC was assessed using the HTRF Cisbio (pACC kit).
(§2) AMPKβ1/β2 double knockout U-2 OS Flp-In™ T-Rex™ cell lines were generated by Horizon Discovery (Cambridge, UK). Cells were genotyped and analysed by Western blotting to confirm that there was a complete knockout of AMPKβ1/β2. We took these AMPKβ1/β2 double knockout cells, and re-introduced the expression of human β1 wild-type (WT) or a β1 Serine 108 to alanine mutation (S108A). This was achieved using the Flp-In™ system (Invitrogen) present in this cell line and stable cells expressing β1 WT or a β1 S108A mutant were generated according to the manufacturers' protocols. Re-expression of the β1 subunit was confirmed by Western blot analysis.
(§3) Cells stably expressing β1 WT or a β1 S108A mutant were treated with varying concentrations of Compound 1 in the presence or absence of a fixed concentration (11 μM) of compound 2. Cells lysates were subjected to the pACC HTRF (Cisbio) assay to determine the level of phosphorylation of the AMPK substrate, ACC, in cell lysates, as in example 1.

[1] = tested on: ADaM-binding site AMPK mutant (β1 S108A); assay: pACC HTRF assay in AMPKβ1/β2 double knockout U-2 OS cells stably expressing β1 S108A mutant; assay type: cell-based, human; settings: fixed 11 μM compound 2 with varying concentrations of compound 1
Method: as §1, §2, §3

[2] = tested on: AMPK complexes containing the β2 isoform subunit; assay: pACC HTRF assay in AMPKβ1/β2 double knockout U-2 OS cells stably expressing β2 WT isoform; assay type: cell-based, human; settings: fixed 11 μM compound 2 with varying concentrations of compound 1
Method: U-2 OS cells AMPKβ1β2 double knockout cells stably expressing AMPK β2 were treated with varying concentrations of compound 1 for 30 mins at 37 C in the presence or absence of 11 μM of compound 2. Phosphorylation of ACC was assessed using the HTRF Cisbio (pACC kit).
We took AMPKβ1/β2 double knockout cells, and re-introduced the expression of the human β2 WT isoform. […] Cells stably expressing β2 WT were treated with varying concentrations of Compound 1 in the absence or presence of a fixed concentration (11 μM) of compound 2. Cell lysates were subjected to the pACC HTRF (Cisbio) assay to determine the level of phosphorylation of the AMPK substrate, ACC, in cell lysates, as in Example 1. […] Direct activation AMPK by binding to the ADaM site was impaired or abolished in β2-containing complexes in vitro and in cells. The inability of compound 2 to improve the activation of AMPK by compound 1, was consistent with the knowledge we have generated showing the compound 2 binds to the ADaM-site of AMPK. […] Low doses of compound 1 in combination with compound 2 could activate AMPK.

| Compound | phosphorylation of the AMPK substrate ACC (ratio 665/620 nm) (AMPK) | phosphorylation of the AMPK substrate ACC (ratio 665/620 nm) (AMPK; listed as compound 1) | pACC (fold increase in activation) (AMPK β1 WT; cells stably expressing β1 WT, varying concentrations, 30 mins at 37 C) | effect on the dose-response curve of compound 1 (pACC) (AMPK; fixed 11 μM compound 2 with varying concentrations of compound 1, 30 mins) | effect on the dose-response curve of compound 1 (pACC) (AMPK β1 WT; β1 WT cells, fixed 11 μM compound 2 with varying concentrations of compound 1) | effect on the dose-response curve of compound 1 (pACC) [1] | effect on the dose-response curve of compound 1 (pACC) [2] |
| --- | --- | --- | --- | --- | --- | --- | --- |
| O=c1oc2cc(O)ccc2c2ccccc12 [Compound 1, 3-hydroxy-6H-benzo[c]chromen-6-one] | increased the phosphorylation of the AMPK substrate, ACC, in a dose-dependent manner | increases the phosphorylation of the AMPK substrate, ACC, in a dose-dependent manner | able to dose-dependently increase pACC |  |  |  |  |
| COc1cc(O)c2c(c1)c(=O)oc1cc(O)ccc12 [Compound 2, 3,10-Dihydroxy-8-methoxy-6H-benzo[c]chromen-6-one] |  |  |  | left-shift in the dose-response curve | capable of causing a left-shift and improvement | not able to cause a left-shift and improvement | did not improve the dose-response curve |

Reference: patent US20230035592A1, “DIRECT AMPK ACTIVATOR COMPOUNDS COMBINED WITH INDIRECT AMPK ACTIVATOR COMPOUNDS, COMPOSITIONS, METHODS AND USES THEREOF” (SOCIETE DES PRODUITS NESTLE S.A., priority 2019, published 2023)
